Our source for the IC50 and Ki values is patent US6610707B1, “Heterocyclic compounds as inhibitors of rotomase enzymes” (Pfizer Inc., priority 1998, dated 2003).

Assay [1] deals with human recombinant FKBP-12 (Homo sapiens, UniProt P62942). The experiment in a line: coupled colorimetric PPIase (rotamase) assay, IC50 against FKBP-12. The assay is classed as biochemical. To be noted: human recombinant FKBP-12, substrate succinyl-AFPF-pNA, 10° C., pH 8.0. The text has this:
The affinity of the compounds of the formula (I) for FKBP-12 can be determined in vitro in a coupled colorimetric PPlase assay using similar procedures to published methods (e.g. see Kofron, J. L., et al., Biochemistry, 1991, 30, 6127-6134, Zarnt, T., et al., Biochem. J. 1995, 305, 159-164, Holt, D. A., et al., J. Am. Chem. Soc., 1993,115, 9925-9938). In these methods, the cis-trans isomerisation of a hydrophobic amino acid-proline bond in a tetrapeptide substrate (e.g. the phenylalanine-proline bond in N-succinyl-ala-phepro-phe-p-nitroanilide [succinyl-AFPF-pNA]) can be determined by monitoring cleavage of pNA from the transPro-containing peptide by an excess of chymotrypsin.
The IC50 (the concentration of the compound of the formula (I) producing 50% inhibition) values were determined using the following assay methodology. Assay buffer (2.175 ml) (50 mM 4-(2-hydroxyethyl)-1-piperazineethanesulphonic acid (HEPES), 100 mM NaCl, 1 mM dithiothreitol (DTT), pH 8.0) is equilibrated to 10° C. in a cuvette. 12.5 μl of a solution of the present compound in DMSO, 250 μl of a 60 mg/ml solution of a-chymotrypsin in 1 mM aqueous hydrochloric acid and then 50 μl of a solution of human recombinant FKBP-12 (4.5 μM) in assay buffer are added and mixed. The reaction is initiated by addition of 12.5 μl of a solution of 20 mM succinyl-AFPF-pNA in DMSO. The absorbance at 390 nm is monitored for one minute collecting data every 0.25 second. Data are fitted with a first order rate equation with offset and the rate constant obtained corrected for the rate of uncatalysed isomerisation of the substrate. The rate constant determined at different inhibitor concentrations (10 nM to 100 μM) is expressed as % inhibition of the control rate constant. The IC50 is estimated using a nonlinear least squares curve fitting routine of the sigmoidal dose response data.

A further assay concerns the target T1, human recombinant FKBP52 (Homo sapiens, UniProt Q02790).
T1 sequence (Q02790 1-459): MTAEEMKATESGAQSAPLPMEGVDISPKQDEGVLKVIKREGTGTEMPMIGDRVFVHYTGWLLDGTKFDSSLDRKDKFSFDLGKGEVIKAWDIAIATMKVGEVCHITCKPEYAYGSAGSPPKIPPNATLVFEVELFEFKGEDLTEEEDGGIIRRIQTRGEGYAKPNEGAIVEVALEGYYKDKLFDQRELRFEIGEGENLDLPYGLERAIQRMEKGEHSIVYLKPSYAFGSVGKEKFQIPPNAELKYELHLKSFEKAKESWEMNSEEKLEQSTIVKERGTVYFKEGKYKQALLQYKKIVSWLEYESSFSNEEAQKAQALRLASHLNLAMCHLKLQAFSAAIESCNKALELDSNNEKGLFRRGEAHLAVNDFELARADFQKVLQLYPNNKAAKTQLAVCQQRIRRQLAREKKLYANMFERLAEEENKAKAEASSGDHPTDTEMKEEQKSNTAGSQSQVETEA
The assay can be described thus: coupled colorimetric PPIase assay, Ki,app against FKBP52. The assay is classed as biochemical. As to conditions: human recombinant FKBP52, substrate succinyl-ALPF-pNA, printed in the IC50 (nm) FKBP-12 column, read-out: Ki FKBP-52.

What is called IC50 is the concentration at which inhibition is half-maximal.

Chain of human recombinant FKBP-12 (P62942 whole entry): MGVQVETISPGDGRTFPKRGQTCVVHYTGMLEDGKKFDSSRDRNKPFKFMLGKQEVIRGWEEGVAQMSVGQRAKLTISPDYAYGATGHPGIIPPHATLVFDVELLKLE

Consider `O=S(=O)(c1nc2ccccc2[nH]1)N1CCCC[C@H]1c1noc(Cc2ccccc2)n1` [Example 1, 1H-Benzo[d]imidazol-2-yl[(2S)-2-(5-benzyl-1,2,4-oxadiazol-3-yl)-1-piperidyl]sulfone], for which, in assay [1], the IC50 is 95 nM.
As to `NCc1ccc(OCc2nc([C@@H]3CCCCN3S(=O)(=O)c3nc4ccccc4[nH]3)no2)cc1` [Example 11, 4-(3-[(2S)-1-(1H-Benzo[d]imidazol-2-ylsuffonyl)-2-piperidyl]-1,2,4-oxadiazol-5-ylmethoxy)benzylamine], the Ki on human recombinant FKBP52 amounted to 685 nM.
On to `CNCc1ccc(OCc2nc(C3CCCCN3S(=O)(=O)c3nc4ccccc4[nH]3)no2)cc1` (centres unmarked) [Example 14, N-[4-(3-[1-(1H-Benzo[d]imidazol-2-ylsulfonyl)-2-piperidyl]-1,2,4-oxadiazol-5-ylmethoxy)benzyl]-N-methylamine], for which the IC50 in assay [1] is 91 nM.
On to `O=S(=O)(CC1CCCCC1)N1CCCC[C@H]1c1noc(COC2CCNCC2)n1` [Example 23, 3-[(2S)-1-Cyclohexylmethylsulfonyl-2-piperidyl]-5-[4-piperidyloxymethyl]-1,2,4-oxadiazole], for which the IC50 in assay [1] turned out to be 336 nM.
Same read-out and setting: then `NCc1ccc(-c2nc([C@@H]3CCCCN3S(=O)(=O)CC3CCCCC3)no2)o1` [Example 25, [5-(3-(2S)-1-[(Cyclohexylmethyl)sulfonyl]-2-piperidyl-1,2,4-oxadiazol-5-yl)-2-furyl]methylamine], with 81 nM; and `O=S(=O)(c1ccc(F)cc1)N1CCCC[C@H]1c1nnc(CCc2ccccc2)o1` [Example 42], with 2010 nM.
Same read-out and setting: for `O=S(=O)(c1ccc(F)cc1)N1CCCC[C@H]1c1nnn(Cc2ccccc2)n1` [Example 43] the value was 1670 nM.
On the same count and under the same terms, for `O=S(=O)(c1nc2ccccc2[nH]1)N1CCCCC1c1noc(-c2ncccn2)n1` (centres unmarked) [Example 65] the value was 442 nM.
